Drawing on patent US12404279B2, “Deubiquitinase inhibitors and methods of use thereof” (Molecure S.A., priority 2021, dated 2025), this text covers IC50 and inhibition for 23 compounds.

Where a name gives a salt, the structure may show the parent alone.

Chain of full-length USP7 (Q93009 whole entry): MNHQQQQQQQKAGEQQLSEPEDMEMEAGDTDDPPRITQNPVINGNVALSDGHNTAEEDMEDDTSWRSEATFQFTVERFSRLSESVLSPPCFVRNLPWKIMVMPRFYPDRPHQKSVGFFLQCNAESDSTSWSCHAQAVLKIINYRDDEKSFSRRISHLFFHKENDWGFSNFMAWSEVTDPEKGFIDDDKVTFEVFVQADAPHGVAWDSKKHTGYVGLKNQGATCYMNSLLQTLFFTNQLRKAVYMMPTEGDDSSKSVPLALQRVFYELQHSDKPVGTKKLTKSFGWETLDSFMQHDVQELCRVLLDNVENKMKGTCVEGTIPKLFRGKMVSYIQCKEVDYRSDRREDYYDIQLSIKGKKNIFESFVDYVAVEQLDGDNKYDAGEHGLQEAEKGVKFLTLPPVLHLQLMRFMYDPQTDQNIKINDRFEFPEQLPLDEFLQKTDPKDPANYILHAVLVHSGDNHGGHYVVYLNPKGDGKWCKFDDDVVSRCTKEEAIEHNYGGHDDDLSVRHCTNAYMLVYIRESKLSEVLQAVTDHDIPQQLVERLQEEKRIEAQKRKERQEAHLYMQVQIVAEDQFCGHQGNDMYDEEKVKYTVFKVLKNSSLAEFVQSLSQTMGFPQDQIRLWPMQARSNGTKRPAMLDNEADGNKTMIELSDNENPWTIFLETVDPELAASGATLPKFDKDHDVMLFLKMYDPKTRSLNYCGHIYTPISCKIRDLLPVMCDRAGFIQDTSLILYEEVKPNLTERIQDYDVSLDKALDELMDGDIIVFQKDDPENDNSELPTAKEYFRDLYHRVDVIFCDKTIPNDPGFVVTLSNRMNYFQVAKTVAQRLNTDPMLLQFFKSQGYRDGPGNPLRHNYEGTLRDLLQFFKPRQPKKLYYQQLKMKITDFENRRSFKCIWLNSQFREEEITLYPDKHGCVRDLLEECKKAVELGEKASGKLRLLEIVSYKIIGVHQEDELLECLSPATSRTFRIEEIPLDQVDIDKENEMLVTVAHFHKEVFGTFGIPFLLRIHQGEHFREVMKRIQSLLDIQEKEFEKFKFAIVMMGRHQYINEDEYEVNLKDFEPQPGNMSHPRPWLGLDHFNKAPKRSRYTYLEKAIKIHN

For one experiment, the target named is full-length USP7 (Homo sapiens (Human), UniProt Q93009). Briefly: Enzymatic assay to determine IC50 of USP7 inhibitors (Ubiquitin-Rhodamine 110 cleavage). Format: biochemical. Conditions: 0.5 nM USP7, 0.5 μM Ubiquitin-Rhodamine 110, 45 min at 37° C. The essentials:
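Enzyme: 0.5 nM full-length USP7 in HEPES pH 7.5 buffer with NaCl, DTT, BSA and Tween20, given 15 min at room temperature with DTT before compounds were added.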
In general, IC50 refers to the concentration that inhibits the measured activity by half. The low end stands for higher potency, the high end for lower potency. In the case of `Cc1cc(C#N)nc(-c2ccnc3cc(CN4C(=O)C5C(C4=O)C5(C)C)sc23)c1C(=O)N1CCNCC1` (centres unmarked) [Example 55, 6-(2-((6,6-dimethyl-2,4-dioxo-3-azabicyclo[3.1.0]hexan-3-yl)methyl)thieno[3,2-b]pyridin-7-yl)-4-methyl-5-(piperazine-1-carbonyl)picolinonitrile hydrochloride], the IC50 is less than 0.5 µM.

Turning to `Cc1cc(C#N)nc(-c2ccnc3cc(CN4C(=O)C5C(C4=O)C5(C)C)sc23)c1C(=O)NC1CNC1` (centres unmarked) [Example 56, N-(azetidin-3-yl)-6-cyano-2-(2-((6,6-dimethyl-2,4-dioxo-3-azabicyclo[3.1.0]hexan-3-yl)methyl)thieno[3,2-b]pyridin-7-yl)-4-methylnicotinamide hydrochloride], the IC50 lay in the range of 1 to 10 µM.

Regarding `Cc1cc(C#N)nc(-c2ccnc3cc(CN4C(=O)C5C(C4=O)C5(C)C)sc23)c1C(=O)N1CCOCC1` (centres unmarked) [Example 58, 6-(2-((6,6-dimethyl-2,4-dioxo-3-azabicyclo[3.1.0]hexan-3-yl)methyl)thieno[3,2-b]pyridin-7-yl)-4-methyl-5-(morpholine-4-carbonyl)picolinonitrile hydrochloride], the IC50 was 0.5 to 1 µM.

As for `Cc1cc(C#N)nc(-c2ccnc3cc(CN4C(=O)C5C(C4=O)C5(C)C)sc23)c1C(=O)N1CCC(F)(F)C1` (centres unmarked) [Example 59, 5-(3,3-difluoropyrrolidine-1-carbonyl)-6-(2-((6,6-dimethyl-2,4-dioxo-3-azabicyclo[3.1.0]hexan-3-yl)methyl)thieno[3,2-b]pyridin-7-yl)-4-methylpicolinonitrile hydrochloride], the 50% inhibitory concentration (IC50) is less than 0.5 µM.

The compound `CNCC(=O)Nc1c(-c2ccnc3cc(CN4C(=O)C5C(C4=O)C5(C)C)sc23)cc(C(F)(F)F)nc1C` (centres unmarked) [Example 60, N-(4-(2-((6,6-dimethyl-2,4-dioxo-3-azabicyclo[3.1.0]hexan-3-yl)methyl)thieno[3,2-b]pyridin-7-yl)-2-methyl-6-(trifluoromethyl)pyridin-3-yl)-2-(methylamino)acetamide 2,2,2-trifluoroacetate] showed an IC50 greater than 10 µM.

Consider `COCC(=O)Nc1c(-c2ccnc3cc(CN4C(=O)C5C(C4=O)C5(C)C)sc23)cc(C(F)(F)F)nc1C` (centres unmarked) [Example 61, N-(4-(2-((6,6-dimethyl-2,4-dioxo-3-azabicyclo[3.1.0]hexan-3-yl)methyl)thieno[3,2-b]pyridin-7-yl)-2-methyl-6-(trifluoromethyl)pyridin-3-yl)-2-methoxyacetamide 2,2,2-trifluoroacetate], for which the IC50 is greater than 10 µM.

As for `Cc1nc(C(F)(F)F)cc(-c2ccnc3cc(CN4C(=O)C5C(C4=O)C5(C)C)sc23)c1NC(=O)C(F)(F)F` (centres unmarked) [Example 62, N-(4-(2-((6,6-dimethyl-2,4-dioxo-3-azabicyclo[3.1.0]hexan-3-yl)methyl)thieno[3,2-b]pyridin-7-yl)-2-methyl-6-(trifluoromethyl)pyridin-3-yl)-2,2,2-trifluoroacetamide 2,2,2-trifluoroacetate], the IC50 is 1 to 10 µM.

The compound `Cc1nc(C(F)(F)F)cc(-c2ccnc3cc(CN4C(=O)C5C(C4=O)C5(C)C)sc23)c1NC(=O)c1cccnc1` (centres unmarked) [Example 63, N-(4-(2-((6,6-dimethyl-2,4-dioxo-3-azabicyclo[3.1.0]hexan-3-yl)methyl)thieno[3,2-b]pyridin-7-yl)-2-methyl-6-(trifluoromethyl)pyridin-3-yl)nicotinamide 2,2,2-trifluoroacetate] showed an IC50 greater than 10 µM.

In turn, `Cc1nc(C(F)(F)F)cc(-c2ccnc3cc(CN4C(=O)C5C(C4=O)C5(C)C)sc23)c1NC(=O)C1CNC1` (centres unmarked) [Example 66, N-(4-(2-((6,6-dimethyl-2,4-dioxo-3-azabicyclo[3.1.0]hexan-3-yl)methyl)thieno[3,2-b]pyridin-7-yl)-2-methyl-6-(trifluoromethyl)pyridin-3-yl)azetidine-3-carboxamide 2,2,2-trifluoroacetate] gave an IC50 of 1 to 10 µM.

Compound `Cc1cc(C(F)(F)F)nc(-c2ccnc3cc(CN4C(=O)C5C(C4=O)C5(C)C)sc23)c1C(=O)NC1CNC1` (centres unmarked) [Example 70, N-(azetidin-3-yl)-2-(2-((6,6-dimethyl-2,4-dioxo-3-azabicyclo[3.1.0]hexan-3-yl)methyl)thieno[3,2-b]pyridin-7-yl)-4-methyl-6-(trifluoromethyl)nicotinamide dihydrochloride] displayed an IC50 of 0.5 to 1 µM.

As to `Cc1cc(C(F)(F)F)nc(-c2ccnc3cc(CN4C(=O)C5C(C4=O)C5(C)C)sc23)c1C(=O)N1CCC2(CCCN2)C1` (centres unmarked) [Example 71, 6,6-dimethyl-3-((7-(4-methyl-3-(1,7-diazaspiro[4.4]nonane-7-carbonyl)-6-(trifluoromethyl)pyridin-2-yl)thieno[3,2-b]pyridin-2-yl)methyl)-3-azabicyclo[3.1.0]hexane-2,4-dione dihydrochloride], the half-inhibitory concentration (IC50) is less than 0.5 µM.

Take `CCN[C@H]1CCN(C(=O)c2c(C)cc(C(F)(F)F)nc2-c2ccnc3cc(CN4C(=O)C5C(C4=O)C5(C)C)sc23)C1` (stereo partly drawn) [Example 73, 3-((7-(3-((S)-3-(ethylamino)pyrrolidine-1-carbonyl)-4-methyl-6-(trifluoromethyl)pyridin-2-yl)thieno[3,2-b]pyridin-2-yl)methyl)-6,6-dimethyl-3-azabicyclo[3.1.0]hexane-2,4-dione dihydrochloride]: the IC50 was less than 0.5 µM.

Regarding `Cc1cc(C(F)(F)F)nc(-c2ccnc3cc(CN4C(=O)C5C(C4=O)C5(C)C)sc23)c1C(=O)N1CC[C@H](NC(C)C)C1` (stereo partly drawn) [Example 74, 3-((7-(3-((S)-3-(isopropylamino)pyrrolidine-1-carbonyl)-4-methyl-6-(trifluoromethyl)pyridin-2-yl)thieno[3,2-b]pyridin-2-yl)methyl)-6,6-dimethyl-3-azabicyclo[3.1.0]hexane-2,4-dione dihydrochloride], the IC50 is less than 0.5 µM.

`Cc1cc(C(F)(F)F)nc(-c2ccnc3cc(CN4C(=O)C5C(C4=O)C5(C)C)sc23)c1C(=O)N[C@H]1CCNC1` (stereo partly drawn) [Example 75, 2-(2-((6,6-dimethyl-2,4-dioxo-3-azabicyclo[3.1.0]hexan-3-yl)methyl)thieno[3,2-b]pyridin-7-yl)-4-methyl-N—((S)-pyrrolidin-3-yl)-6-(trifluoromethyl)nicotinamide dihydrochloride]: the IC50 lay in the range of 1 to 10 µM.

For `Cc1cc(C(F)(F)F)nc(-c2ccnc3cc(CN4C(=O)C5C(C4=O)C5(C)C)sc23)c1C(=O)N1CCNCC1` (centres unmarked) [Example 76, 6,6-dimethyl-3-((7-(4-methyl-3-(piperazine-1-carbonyl)-6-(trifluoromethyl)pyridin-2-yl)thieno[3,2-b]pyridin-2-yl)methyl)-3-azabicyclo[3.1.0]hexane-2,4-dione dihydrochloride], the IC50 is less than 0.5 µM.

`Cc1cc(C(F)(F)F)nc(-c2ccnc3cc(CN4C(=O)C5C(C4=O)C5(C)C)sc23)c1C(=O)N1CCNC[C@@H]1C` (stereo partly drawn) [Example 78, 6,6-dimethyl-3-((7-(4-methyl-3-((S)-2-methylpiperazine-1-carbonyl)-6-(trifluoromethyl)pyridin-2-yl)thieno[3,2-b]pyridin-2-yl)methyl)-3-azabicyclo[3.1.0]hexane-2,4-dione dihydrochloride] yielded a concentration for half-maximal inhibition (IC50) of less than 0.5 µM.

Take `Cc1cc(C(F)(F)F)nc(-c2ccnc3cc(CN4C(=O)C5C(C4=O)C5(C)C)sc23)c1C(=O)N1CCN(C)C[C@@H]1C` (stereo partly drawn) [Example 79, 3-((7-(3-((S)-2,4-dimethylpiperazine-1-carbonyl)-4-methyl-6-(trifluoromethyl)pyridin-2-yl)thieno[3,2-b]pyridin-2-yl)methyl)-6,6-dimethyl-3-azabicyclo[3.1.0]hexane-2,4-dione hydrochloride]: the IC50 was less than 0.5 µM.

Compound `Cc1cc(C(F)(F)F)nc(-c2ccnc3cc(CN4C(=O)C5C(C4=O)C5(C)C)sc23)c1C(=O)N1CCN(C)CC1` (centres unmarked) [Example 80, 6,6-dimethyl-3-((7-(4-methyl-3-(4-methylpiperazine-1-carbonyl)-6-(trifluoromethyl)pyridin-2-yl)thieno[3,2-b]pyridin-2-yl)methyl)-3-azabicyclo[3.1.0]hexane-2,4-dione dihydrochloride] showed a half-inhibitory concentration (IC50) of less than 0.5 µM.

Take `Cc1cc(C(F)(F)F)nc(-c2ccnc3cc(CN4C(=O)C5C(C4=O)C5(C)C)sc23)c1C(=O)N1CCC(F)(F)C1` (centres unmarked) [Example 83, 3-((7-(3-(3,3-difluoropyrrolidine-1-carbonyl)-4-methyl-6-(trifluoromethyl)pyridin-2-yl)thieno[3,2-b]pyridin-2-yl)methyl)-6,6-dimethyl-3-azabicyclo[3.1.0]hexane-2,4-dione hydrochloride]: the IC50 was less than 0.5 µM.

Still in this experiment, the particulars now being: at 1 μM of the test compound; given where IC50 not determined yet; read-out: percent value of inhibition of USP7 activity.
A word on the inhibition: it is how much of the control response was suppressed. `Cc1cc(C#N)nc(-c2ccnc3cc(CN4C(=O)C5C(C4=O)C5(C)C)sc23)c1C(=O)NC1CC(F)(F)C1` (centres unmarked) [Example 57, 6-cyano-N-(3,3-difluorocyclobutyl)-2-(2-((6,6-dimethyl-2,4-dioxo-3-azabicyclo[3.1.0]hexan-3-yl)methyl)thieno[3,2-b]pyridin-7-yl)-4-methylnicotinamide hydrochloride]: the inhibition at 1 µM is less than 20%.

For `Cc1nc2c(-c3cc(Cl)cc(C)c3O[C@H]3CCCNC3)ccnc2[nH]1` [Example 67, (S)-7-(5-chloro-3-methyl-2-(piperidin-3-yloxy)phenyl)-2-methyl-3H-imidazo[4,5-b]pyridine hydrochloride], the inhibition at 1 µM was less than 20%.

Regarding `Cc1cc(Cl)cc(-c2ccnc3c2nc(C)n3C)c1O[C@H]1CCCNC1` [Example 68, (S)-7-(5-chloro-3-methyl-2-(piperidin-3-yloxy)phenyl)-2,3-dimethyl-3H-imidazo[4,5-b]pyridine hydrochloride], the inhibition at 1 µM was less than 20%.

As to `Cc1cc(Cl)cc(-c2ccnc3nc(C)n(C)c23)c1O[C@H]1CCCNC1` [Example 69, (S)-7-(5-chloro-3-methyl-2-(piperidin-3-yloxy)phenyl)-1,2-dimethyl-1H-imidazo[4,5-b]pyridine hydrochloride], the inhibition at 1 µM is less than 20%.
